This note sets out measurements from publication PMC9626527, “SHR2285, the first selectively oral FXIa inhibitor in China: Safety, tolerability, pharmacokinetics and pharmacodynamics combined with aspirin, clopidogrel or ticagrelor” (Frontiers in Pharmacology, 2022).

A short description of the data set: Plasma pharmacokinetics of co-administered aspirin (100 mg qd)/salicylic acid, clopidogrel (300 mg then 75 mg qd), ticagrelor (180 mg then 90 mg bid)/AR-C124910XX with SHR2285 or placebo. As for the experimental part: For group A, the dosing regimen was aspirin + clopidogrel + placebo or SHR2285 200 mg. Specifically, aspirin: 100 mg was taken orally every morning from day 1 to day 6; clopidogrel: 300 mg in the morning of the first day, 75 mg in the morning of the second day to the sixth day; placebo or SHR2285 (1:3): 200 mg orally every morning and evening until the morning of the sixth day.
For group B, the dosing regimen was aspirin + clopidogrel + placebo or SHR2285 300 mg. The use of aspirin and clopidogrel was the same as that of group A; Placebo or SHR2285: added the amount to 300 mg based on group A.
For group C, the administration regimen was aspirin + ticagrelor + placebo or SHR2285 300 mg. The use of aspirin, placebo or SHR2285 was the same as that in group B. Clopidogrel in group B was adjusted to ticagrelor: 180 mg orally in the morning of the first day, 90 mg in the morning and evening from the second day to the morning of the sixth day.
PK blood collection points: the blood of each group was collected in the morning of day 1 before administration (within 1 h before administration), 4 h and 12 h after administration (before administration in the evening); in the morning of day 3, day 4, and day 5 before administration (within 1 h before administration), within 1 h before administration on the morning of the sixth day, and 0.5 h, 1 h, 1.5 h, 2 h, 2.5 h, 3 h, 4 h, 5 h, 6 h, 8 h, 10 h, 12 h, 15 h, 24 h, 36 h, and 48 h after administration. About 7 ml of venous blood was collected, and the plasma was collected for concentration determination of aspirin and its active metabolites (salicylic acid) and clopyridine (group A, group B), ticagrelor and its active metabolite AR-C124910XX (group C), SHR2285 and its active metabolite SHR164471.
Based on the actual sampling time, the PK parameters of each component were calculated as a non-compartmental model by WinNonlin (Certara United States Inc, version 8.1). The pharmacokinetic parameters after multiple administrations were investigated: Cmax, AUCtau, AUC0-last, AUC0-inf, Tmax, t1/2, CLss/F, Vss/F, Ctrough and Caverage. The main pharmacokinetic parameters such as AUC0-last, AUC0-inf and Cmax were tabulated and summarized by descriptive statistics.
After logarithmic conversion, the AUCss and Cmax of each component in the SHR2285 group (aspirin + clopidogrel/ticagrelor + SHR2285) and placebo group (aspirin + clopidogrel/ticagrelor + placebo) were statistically analyzed by ANOVA model. The medication group was used as the independent variable. The geometric mean ratio of the corresponding PK parameter (SHR2285/placebo group) and the estimated value of its 90% confidence interval was obtained by taking the exponential conversion from the mean difference estimated by the model (SHR2285 group-placebo group) and its 90% confidence interval. SHR2285 and its metabolite SHR164471, aspirin/salicylic acid, clopidogrel, ticagrelor and its metabolite AR-C124910XX were determined by Frontage Laboratories Co., Ltd. (Shanghai, China) using high-performance liquid chromatography-tandem mass spectrometry (HPLC-MS, Sciex API 4000). The chromatographic column is WATERS CORTECS®T3 (50 mm × 4.6 mm, id 2.7 μm), column temperature is set at 40°C. Mobile phase A is ultrapure water (containing 0.1% formic acid), and mobile phase B is acetonitrile/water (90:10, containing 0.1% formic acid). The elution gradient is: 0–0.4 min, A-B (50:50), 0.4–0.8 min, A-B (5:95), 0.8–2 min, A-B (5:95), 2–2.4 (50:50), 2.4–3.5 min, A-B (50:50). The total time was 3.5 min and the flow rate was 1.0 ml/min. The ion source was ESI source at positive ion mode. The heating capillary temperature was 400°C; CAD was nine; curtain gas was 30; GS1 (N2) was 50; GS2 (N2) was 50; The method used was multiple reaction monitoring (MRM), and the ion reactions used for quantitative analysis were m/z 545.1→408.0 (SHR2285) and m/z 721.2→408.1 (SHR164471), respectively.

Where [1] appears, read: Placebo (C) n=8: aspirin + ticagrelor + placebo, day 6.
[2] abbreviates: SHR2285 (C) n=12: aspirin + ticagrelor + SHR2285 300 mg bid, day 6.

Turning to `CCCSc1nc(N[C@@H]2C[C@H]2c2ccc(F)c(F)c2)c2nnn([C@@H]3C[C@H](O)[C@@H](O)[C@H]3O)c2n1` [AR-C124910XX], the AUCtau by setting is: under setting [1], 2490(38.3) h*ng/mL; under setting [2], 2280(26.4) h*ng/mL. The Cmax is reported as 389(35.4) ng/ml under setting [1] and 367(28.1) ng/ml under setting [2]. Also, the Tmax by setting is: (Placebo (C) n=8: aspirin + ticagrelor + placebo, day 6, median (range)) 1.5(1.0-2.5) h; (SHR2285 (C) n=12: aspirin + ticagrelor + SHR2285 300 mg bid, day 6, median (range)) 1.75(1.5-2.5) h; (range across SHR2285 and placebo groups, day 6) 1.5 to 1.75 h. Besides, the “steady state in plasma” value (group C, six days after administration of ticagrelor) was “reached a steady state”.
In the case of `COC(=O)[C@H](c1ccccc1Cl)N1CCc2sccc2C1` [Clopidogrel, clopidogrel], where the note is “human, in vivo”, the Tmax entry is “one to 1.5”.
For the compound `CCCSc1nc(N[C@@H]2C[C@H]2c2ccc(F)c(F)c2)c2nnn([C@@H]3C[C@H](OCCO)[C@@H](O)[C@H]3O)c2n1` [Ticagrelor, ticagrelor], where the note is “human, in vivo”, the “GLSMR of AUCtau (SHR2285 group/placebo group)” value is recorded as 0.929 and the “GLSMR of Cmax (SHR2285 group/placebo group)” value is 1.06. Under “human, in vivo, Tmax”, the Tmax lay in the range of 1.5 to 1.75 h. For the same compound, where the note is “in vivo”, the “steady state in plasma” value was “reached a steady state”.

As a reminder, the Tmax is the time from dosing to the highest level.
